From BigSolDB 2.1

COc1c(C)c2c(c(O)c1C/C=C(\C)CCC(=O)OCCN1CCOCC1)C(=O)OC2
solubility (mole fraction)
Conditions | 278.15 K | 283.15 K | 288.15 K | 293.15 K | 298.15 K | 303.15 K | 308.15 K | 313.15 K | 318.15 K
in DMSO | – | – | – | 0.0166 | 0.0214 | 0.0263 | 0.0322 | 0.0389 | 0.046
in ethanol | 0.00352 | 0.00394 | 0.00449 | 0.00511 | 0.00581 | 0.00659 | 0.00749 | 0.00847 | 0.0095
in isopropanol | 0.00538 | 0.00592 | 0.00664 | 0.00732 | 0.00821 | 0.0091 | 0.00998 | 0.011 | 0.0121
in propylene glycol | 0.000349 | 0.000486 | 0.000633 | 0.00081 | 0.001 | 0.00122 | 0.00145 | 0.00172 | 0.00199
in water | 2.62e-07 | 4.16e-07 | 6.62e-07 | 1.05e-06 | 1.55e-06 | 2.12e-06 | 2.84e-06 | 3.68e-06 | 4.51e-06
